1 molecule from patent US20230329906A1, “INTRAOCULAR DELIVERY OF BIOACTIVE MOLECULES USING IONTOPHORESIS” (KEMIN INDUSTRIES, INC., priority 2014, published 2023) can be followed below.

Data set [1] in a line: Lutein distribution in human cadaveric eyes after corneo-scleral iontophoresis, two-photon microscopy. It counts as in vitro ADME. The following applies: 2.5 mA for 5 min cornea/sclera, 80 min rest. On the procedure: (§1) A typical iontophoretic setting is made of two components: ocular applicator and a return electrode both connected to a generator. In this experiment, the ocular applicator comprised 2 electrodes to address independently corneal and scleral tissues. The ocular applicator (OPIA Technologies SAS, Paris, France) is made of polyurethane resin and comprises 2 reservoirs: central circular reservoir (diameter 8 mm, height 4.5 mm, volume 1 ml) and a stainless steel electrode, applied on the cornea surrounded by an annular reservoir (inner diameter 12.5 mm, outer diameter 18 mm height 4.5 mm, volume 1 ml) and a stainless steel electrode, applied on the sclera (pars plana region around the limbus). Each stainless steel electrode connected with a lead to a different constant current generator (anode —positive electrode). The return electrodes were assigned to each generator and respectively attached to the optic nerve (for the corneal electrode) and the equator region of the sclera (for scleral electrode), closing each electrical circuit independently.
Cadaveric eyes. Six human cadaveric eye globes, from different healthy donors, were obtained from the Veneto Eye Bank Foundation (Venezia Zelarino, Italy). […]
(§2) Preparation of the eyes. […] After pre-conditioning, the central corneal thickness (CCT) was measured, using an ultrasound corneal pachymeter (Pachmate, DGH, Exton, USA). […]

Data set [2] is described as follows: Resonance Raman spectroscopy of ocular tissues of human cadaveric eyes after iontophoresis. It counts as in vitro ADME. As to the method: as §1
Cadaveric eyes. Six human cadaveric eye globes, from different healthy donors, were obtained from the Veneto Eye Bank Foundation (Venezia Zelarino, Italy). The human eyes were used in compliance with the guidelines of the Declaration of Helsinki for research involving the use of human tissue and were explanted between 3 and 16 hours after death and immediately preserved at 4° C. in corneal storage medium enriched with 6% dextran. The mean donor age was 63.6±5.9 years. The mean endothelial cell density was 2125±389 cells/mm^2. Each eye globe, submerged in dextran enriched solution, was shipped to the laboratory within 5 days. Four eye globes underwent corneo-scleral iontophoresis to deliver 0.1% lutein ophthalmic solution into the retinal tissue. Two eye globes were used as control: iontophoresis was performed without presence of the formulation.
as §2

In the case of `CC1=C[C@H](O)CC(C)(C)[C@H]1/C=C/C(C)=C/C=C/C(C)=C/C=C/C=C(C)/C=C/C=C(C)/C=C/C1=C(C)C[C@@H](O)CC1(C)C` [lutein], in data set [1], the “Lutein distribution within the retina, outer versus inner part” value is “more lutein in the outer part close to the photoreceptors than in the ganglion cells”. In addition, the “Lutein in the retina” value in data set [1] was “abundant in the retina”. The “Raman peak at 1530 cm−1, treated eye versus control eye” value in data set [2] (inner sclera) was 7 times; in data set [2] (retinal mid-periphery), 1.7 times. Further, the “Raman peak at 1530 cm−1, treated eye versus controls” value in data set [2] (macula) was 1.3 times.
